Counter-ions that a name gives are not always drawn.
Key:
human whole blood = test: Test 4. In vitro haemolysis test; assay type: cell-based; conditions: Li-GLA dissolved in 0.9% saline
Description: The samples were then incubated at 37° C. in an oxygen:carbon dioxide, 95:5, enriched atmosphere, 3 l/min, for 1 h, with constant gentle shaking. […] All samples were then spun for 2 min in an Eppendorf Microfuge (Brinkman Instruments Ltd, Canada) and finally analyzed on a centrifugal analyser (Cobas Bioanalyser; Hoffmann-La Roche Ltd, Canada) with UV scan of 540 nm.

haemolysis = test: Haemolysis in vivo, preliminary studies; parameters: species or system rats
cancer cells = test: Activity against cancer cells in vitro; assay type: cell-based

CCCCC/C=C\C/C=C\C/C=C\CCCCC(=O)O [Li-GLA, lithium salt of gammalinolenic acid]
Concentration causing 100% haemolysis (human whole blood): 4 to 5 mM | "Red urine" in rats (haemolysis): does | Activity against cancer cells in vitro, free vs liposomal Li-GLA (cancer cells): almost identical
